Experimental data as given in PubChem BioAssay (NCI).
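Test compounds were applied to cells in 96-well plates for 48 hours at 5 doses. Abbreviation: GI50, concentration required for 50% inhibition of growth. At the TGI there is no net growth.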

What was measured:
Experiment in all cases: growth of human tumour cells (NCI), 48 h
COLO 205 colon = system: COLO 205 colon
SK-MEL-28 melanoma = system: SK-MEL-28 melanoma
MALME-3M melanoma = system: MALME-3M melanoma
K-562 leukemia = system: K-562 leukemia
ACHN renal = system: ACHN renal
HCT-116 colon = system: HCT-116 colon
SF-268 CNS = system: SF-268 CNS
SK-OV-3 ovarian = system: SK-OV-3 ovarian
DU-145 prostate = system: DU-145 prostate
PC-3 prostate = system: PC-3 prostate

Compound	TGI (COLO 205 colon) [µM]	TGI (SK-MEL-28 melanoma) [µM]	TGI (MALME-3M melanoma) [µM]	TGI (K-562 leukemia) [µM]	TGI (ACHN renal) [µM]	TGI (HCT-116 colon) [µM]	TGI (SF-268 CNS) [µM]	TGI (SK-OV-3 ovarian) [µM]	GI50 (COLO 205 colon) [µM]	GI50 (SK-MEL-28 melanoma) [µM]	GI50 (DU-145 prostate) [µM]	TGI (DU-145 prostate) [µM]	GI50 (PC-3 prostate) [µM]	TGI (PC-3 prostate) [µM]	GI50 (K-562 leukemia) [µM]	GI50 (ACHN renal) [µM]	GI50 (HCT-116 colon) [µM]	GI50 (SF-268 CNS) [µM]
COc1ccc(C(C#N)Cc2cc(OC)c(OC)c(OC)c2)cc1 (centres undefined)	49.3	> 100	> 100	> 100	> 100	> 100	> 100	–	–	–	–	–	–	–	–	–	–	–
N#CC(c1nc2ccccc2nc1Cl)S(=O)(=O)c1ccccc1 (centres undefined)	> 100	> 100	> 100	> 100	> 100	> 100	> 100	–	–	–	–	–	–	–	–	–	–	–
Cc1[nH]c2ccccc2c1C1Cc2ccccc2N1C(=O)/C=C/C(=O)O (centres undefined)	> 100	–	> 100	> 100	> 100	> 100	> 100	> 100	–	–	–	–	–	–	–	–	–	–
CN1c2ccccc2N(C)C23N(C)c4ccccc4N(C)C12N(C)c1ccccc1N3C (centres undefined)	> 100	> 100	> 100	> 100	> 100	> 100	> 100	–	–	–	–	–	–	–	–	–	–	–
CCOC(=O)NC(=O)c1cn(CCN2CCN(c3ncnc4nc[nH]c34)CC2)c(=O)[nH]c1=O	> 100	> 100	> 100	> 100	> 100	> 100	> 100	> 100	–	–	–	–	–	–	–	–	–	–
CCc1cccc(C)c1NC(=O)C(=O)Cc1nc2ccccc2s1	> 100	> 100	> 100	> 100	> 100	> 100	> 100	> 100	–	–	–	–	–	–	–	–	–	–
COC(=O)c1cc(Cl)ccc1NC(=O)c1ccc([N+](=O)[O-])cc1	–	> 100	90.6	> 100	26.5	17.9	–	42.5	–	–	–	–	–	–	–	–	–	–
CCCOC(=O)N1CCN(/[N+]([O-])=N/Oc2ccc([N+](=O)[O-])cc2[N+](=O)[O-])CC1	6.21	39.4	–	> 100	3.79	1.17	11.1	–	2.59	6.04	1.81	3.53	4.14	15.1	0.505	1.84	0.301	3.19
Cc1ccccc1NC(=O)C(=O)CC(=O)c1c(C)n([O-])c2ccccc2[n+]1=O	> 100	> 100	> 100	> 100	> 100	> 100	> 100	> 100	–	–	–	–	–	–	–	–	–	–
O=C1CC(S(=O)(=O)O)C=C1Nc1cccc(Cl)c1 (centres undefined)	> 100	> 100	> 100	> 100	> 100	> 100	> 100	> 100	–	–	–	–	–	–	–	–	–	–
COc1ccc(/C=N/N=C(\N)NO)c(OC)c1	> 100	> 100	> 100	> 100	> 100	> 100	> 100	> 100	–	–	–	–	–	–	–	–	–	–
COc1ccc(OC)c2c1C(=O)C1CC1(Br)C2=O (centres undefined)	> 100	> 100	> 100	> 100	> 100	> 100	> 100	> 100	–	–	–	–	–	–	–	–	–	–
O=CN/C=C/c1ccc(O)c(O)c1	> 100	> 100	> 100	> 100	> 100	> 100	> 100	> 100	–	–	–	–	–	–	–	–	–	–
C1=C2/CC[C@H](Sc3ccccc3)[C@H]2C2(CCCCC/1)OCCO2	38.2	> 100	73.8	> 100	> 100	> 100	> 100	> 100	–	–	–	–	–	–	–	–	–	–
Cc1ccc(N2C(=O)C3C=CC(n4[nH]c(=O)n(Cc5ccccc5)c4=O)CC3C2=O)cc1 (centres undefined)	> 100	> 100	> 100	> 100	> 100	> 100	> 100	> 100	–	–	–	–	–	–	–	–	–	–
O=CC1CCCc2ccccc21 (centres undefined)	> 61.4	> 100	> 100	> 100	> 100	> 77.2	> 31.6	> 100	–	–	–	–	–	–	–	–	–	–
CCOC(=O)C(=Cc1cccnc1C)C(=O)OCC	18.4	36.5	26.8	17.3	29.5	17.9	31.3	25	–	–	–	–	–	–	–	–	–	–
Cc1cccc(C(C)C)c1NC(=O)CC1C(=O)Nc2ccccc2S1(=O)=O (centres undefined)	> 100	> 56	50.9	10.3	> 58.2	> 46.9	29.5	> 100	–	–	–	–	–	–	–	–	–	–
O=c1c2ccccc2nc(-c2ccccc2)n1NC1OC(CO)C(O)C(O)C1O (centres undefined)	> 100	> 100	> 100	> 100	> 100	> 100	> 100	> 100	–	–	–	–	–	–	–	–	–	–
